From patent US20040024024A1, “Aromatic sulfone hydroxamates and their use as protease inhibitors” (priority 2001, published 2004)
pIC50: −log10 of the molar value.

How the values were obtained:
Human recombinant MMP-2 = target: T1, Human recombinant MMP-2 (Homo sapiens, UniProt P08253); assay: In vitro MMP inhibition, IC50 determination (fluorogenic substrate I); type: biochemical
T1 construct: made in house; host or cells: MMP-2-transfected p2AHT2 cells
T1 sequence (P08253 110-660): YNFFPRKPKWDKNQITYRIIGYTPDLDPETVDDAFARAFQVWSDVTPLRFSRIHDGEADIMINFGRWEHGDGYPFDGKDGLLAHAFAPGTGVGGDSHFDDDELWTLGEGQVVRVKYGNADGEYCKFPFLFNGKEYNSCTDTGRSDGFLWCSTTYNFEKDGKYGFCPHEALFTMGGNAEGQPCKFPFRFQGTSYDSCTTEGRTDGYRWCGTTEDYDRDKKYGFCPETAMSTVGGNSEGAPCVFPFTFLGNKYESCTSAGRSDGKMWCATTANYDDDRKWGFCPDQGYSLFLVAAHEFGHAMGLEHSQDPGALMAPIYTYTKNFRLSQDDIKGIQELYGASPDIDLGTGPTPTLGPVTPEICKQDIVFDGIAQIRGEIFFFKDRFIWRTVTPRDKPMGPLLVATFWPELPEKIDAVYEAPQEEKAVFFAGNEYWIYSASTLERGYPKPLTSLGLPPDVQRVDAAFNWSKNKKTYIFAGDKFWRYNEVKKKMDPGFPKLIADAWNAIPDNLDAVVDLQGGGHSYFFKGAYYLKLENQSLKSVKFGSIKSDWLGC
Procedure: (§1) Several hydroxamates and salts thereof were analyzed in in vitro assays to determine their ability to inhibit the MMP cleavage of peptide substrates. Inhibition (Ki) and IC50 constants were calculated from the assayed hydroxamate-MMP interactions.
(§2) Human recombinant MMP-1, MMP-2, MMP-9, MMP-13, and MMP-14 were used in this assay. All enzymes were prepared in Assignee's laboratories following usual laboratory procedures. Protocols for the preparation and use of these enzymes are available in the scientific literature. See, e.g., Enzyme Nomenclature (Academic Press, San Diego, Calif., 1992) (and the citations therein). See also, Frije et al., J. Biol. Chem., 26(24), 16766-73 (1994).
The MMP-2 proenzyme was purified by gelatin Sepharose chromatography from MMP-2-transfected p2AHT2 cells provided by Dr. Gregory Goldberg of Washington University (St. Louis, Mo.).
(§3) All MMPs were activated using 4-aminophenylmercuric acetate (“APMA”, Sigma Chemical, St. Louis, Mo.) or trypsin. MMP-9 also was activated using human recombinant MMP-3 (purified in Assignee's laboratory following standard cloning and purification techniques).
(§4) Two fluorogenic, methoxycoumarin-containing polypeptide substrates were used in the MMP inhibition assays:
(§5) MCA-ProLeuGlyLeuDpaAlaArgNH2 (I)
(§6) Here, “Dpa” is 3-(2,4-dinitrophenyl)-L-2,3-diaminopropionyl group, and “MCA” is 7-methoxycoumarin-4-yl acetyl. Substrate (I) was purchased from Baychem (Redwood City, Calif.), and substrate II was prepared Assignee's laboratory. Substrate I was used in the IC50 determination assays, while substrate II was used in the Ki determination assays. In the absence of MMP inhibitory activity, either substrate is cleaved at the Gly-Leu peptide bond. This cleavage separates the highly fluorogenic peptide from the 2,4-dinitrophenyl quencher, thus resulting in increase of fluorescent intensity.
(§7) The stock solutions of the assayed hydroxamates (or salts thereof) were prepared in 1% dimethyl sulfoxide (DMSO). These stock solutions were diluted in Buffer A (100 mM Tris-HCl, 100 mM NaCl, 10 mM CaCl2, 0.05% polyoxyethylene 23 lauryl ether, pH 7.5) to obtain solutions with different hydroxamate concentrations, i.e., assay solutions with different concentrations of the assayed MMP inhibitory compound. The experiment controls contained the same amount of Buffer A/DMSO as the assayed sample, but contained no hydroxamate (or salt thereof).
(§8) The assays from which the IC50 determinations were made were performed as follows. The MMPs were activated with either trypsin or APMA (4-aminophenylmercuric acetate, Sigma Chemical, St. Louis, Mo.). The assayed hydroxamate samples were, incubated in Microfluorrm White Plates (Dynatech, Chantilly, VA) and analyzed on a Perkin Elmer L550 plate reader (Norwalk, Conn.). The excitation wavelength was 328 nm, and the emission wavelength—415 nm. All samples (assayed hydroxamates and controls) were incubated in separate plates at room temperature in the presence of 4 μM of MMP substrate (I). As stated in the previous paragraph, samples containing varying concentrations of the same assayed hydroxamate were prepared. Inhibition was measured as a reduction in fluorescent intensity as a function of MMP inhibitor concentration.

Human recombinant MMP-13 = target: T2, Human recombinant MMP-13 (Homo sapiens, UniProt P45452); assay: as above; type: biochemical
T2 construct: made in house; host or cells: baculovirus / insect cells
Procedure: as §1, §2
The expressed proenzyme was first purified over a heparin agarose column, and then over a chelating zinc chloride column. The proenzyme was then activated by APMA for use in the assay. Further details on baculovirus expression systems may be found in, for example, Luckow et al., J. Virol., 67, 4566-79 (1993). See also, O'Reilly et al, Baculovirus Expression Vectors: A Laboratory Manual (W. H. Freeman and Co., New York, N.Y., 1992). See also, King et al., The Baculovirus Expression System: A Laboratory Guide (Chapman & Hall, London, England, 1992).
as §3, §4, §5, §6, §7, §8

[1] = value outside parentheses (Ki in parenthesis)

pIC50 (Human recombinant MMP-2; [1])	pIC50 (Human recombinant MMP-13; [1])	pIC50 (Human recombinant MMP-2; value outside parentheses)	pIC50 (Human recombinant MMP-13; value outside parentheses)	Structure (SMILES)	further results
6.19	6.59	–	–	COc1ccc(C(=O)N2CCCC(COc3ccc(S(=O)(=O)C4(C(=O)NO)CCOCC4)cc3)C2)cc1 (stereo not drawn) [Example 421]	–
6.30	7.41	–	–	COc1ccc(C(=CCCCOc2ccc(S(=O)(=O)C3(C(=O)NO)CCOCC3)cc2)c2ccc(OC)cc2)cc1 [Example 349]	–
6.50	8.59	–	–	O=C(NCCCOc1ccc(S(=O)(=O)C2(C(=O)NO)CCOCC2)cc1)c1ccccc1 [Example 417]	–
–	–	7.86	8.44	COc1cccc(CC(=O)NCCOc2ccc(S(=O)(=O)C3(C(=O)NO)CCOCC3)cc2)c1 [Example 602]	–
6.31	6.72	–	–	O=C(c1cccc(C(F)(F)F)c1)N1CC[C@@H](Oc2ccc(S(=O)(=O)C3(C(=O)NO)CCOCC3)cc2)C1 [Example 424]	–
7.99	8.74	–	–	COc1ccc(C(C)(O)CCCCOc2ccc(S(=O)(=O)C3(C(=O)NO)CCOCC3)cc2)cc1 (stereo not drawn) [Example 347]	–
–	–	7.32	8.92	O=C(CCCOc1ccc(S(=O)(=O)C2(C(=O)NO)CCOCC2)cc1)N1CCc2ccccc21 [Example 577]	–
–	–	6.85	8.42	O=C(NO)C1(S(=O)(=O)c2ccc(OCCc3cccc(N4CCCCC4)c3)cc2)CCOCC1 [Example 594]	–
6.21	7.01	–	–	COc1ccc(C(=O)[C@H](O)CCOc2ccc(S(=O)(=O)C3(C(=O)NO)CCOCC3)cc2)cc1 [Example 318]	–
–	–	7.44	8.48	O=C(NCCOc1ccc(S(=O)(=O)C2(C(=O)NO)CCOCC2)cc1)c1ccc(-c2ccccc2)cc1 [Example 604]	–
6.05	8.15	–	–	Cn1cccc1C(=O)NCCCOc1ccc(S(=O)(=O)C2(C(=O)NO)CCOCC2)cc1 [Example 391]	–
7.08	8.66	–	–	N#Cc1ccc(C(=O)NCCCOc2ccc(S(=O)(=O)C3(C(=O)NO)CCOCC3)cc2)cc1 [Example 387]	–
–	–	7.02	7.82	COc1ccc(C(=N)NCCCOc2ccc(S(=O)(=O)C3(C(=O)NO)CCOCC3)cc2)cc1 [Example 588]	–
6.71	8.85	–	–	O=C(NCCCOc1ccc(S(=O)(=O)C2(C(=O)NO)CCOCC2)cc1)c1ccc(Cl)nc1 [Example 381]	–

Further lines, the molecule ahead of its results:

Structure (SMILES)	pIC50 (Human recombinant MMP-2; [1])	pIC50 (Human recombinant MMP-13; [1])	pIC50 (Human recombinant MMP-2; value outside parentheses)	pIC50 (Human recombinant MMP-13; value outside parentheses)	further results
O=C(NO)C1(S(=O)(=O)c2ccc(OCCCS(=O)(=O)N3CCOCC3)cc2)CCOCC1 [Example 315]	7.89	7.90	–	–	–
O=C(NCCCOc1ccc(S(=O)(=O)C2(C(=O)NO)CCOCC2)cc1)c1cc2ccccc2o1 [Example 101]	–	–	–	–	pIC50 (Human recombinant MMP-2; value outside parenthesis): 7.74; pIC50 (Human recombinant MMP-13; value outside parenthesis): 9.70
N=C(NCCOc1ccc(S(=O)(=O)C2(C(=O)NO)CCOCC2)cc1)c1ccccc1 [Example 600]	–	–	6.69	6.67	–
CCOc1ccc(-c2nnc(CCCOc3ccc(S(=O)(=O)C4(C(=O)NO)CCOCC4)cc3)o2)cc1OCC [Example 303]	7.30	8.00	–	–	–
CCCCc1ccc(N2CCN(CCCOc3ccc(S(=O)(=O)C4(C(=O)NO)CCOCC4)cc3)C2=O)cc1 [Example 192]	–	–	–	–	pIC50 (Human recombinant MMP-2; value outside parenthesis): 5.90; pIC50 (Human recombinant MMP-13; value outside parenthesis): 7.81
O=C(NCCCOc1ccc(S(=O)(=O)C2(C(=O)NO)CCOCC2)cc1)c1ccc(-c2ccccc2)cc1 [Example 365]	7.68	9.22	–	–	–
O=C(NO)C1(S(=O)(=O)c2ccc(OCCn3nnc4ccccc4c3=O)cc2)CCOCC1 [Example 590]	–	–	6.07	7.32	–
COCCN1CCC(C(=O)NO)(S(=O)(=O)c2ccc(OCCCc3nc(-c4ccc(CCC(C)C)cc4C)no3)cc2)CC1 [Example 100]	–	–	–	–	pIC50 (Human recombinant MMP-2; value outside parenthesis): 5.77; pIC50 (Human recombinant MMP-13; value outside parenthesis): 6.82
CN(CCCOc1ccc(S(=O)(=O)C2(C(=O)NO)CCN(C3CC3)CC2)cc1)C(=O)C1C2CC3CC(C2)CC1C3 (stereo not drawn) [Example 644]	–	–	5.58	7.68	–
O=C(NCCNc1ccc(S(=O)(=O)C2(C(=O)NO)CCOCC2)cc1)c1cc2ccccc2o1 [Example 621]	–	–	6.43	7.75	–
COCCN1CCC(C(=O)NO)(S(=O)(=O)c2ccc(OCCCn3cc(-c4cccc(OC)c4)cn3)cc2)CC1 [Example 235]	–	–	–	–	pIC50 (Human recombinant MMP-2; value outside parenthesis): 6.37; pIC50 (Human recombinant MMP-13; value outside parenthesis): 7.59
O=C(NO)C1(S(=O)(=O)c2ccc(OCCCCCc3ccc4ccccc4c3)cc2)CCOCC1 [Example 464]	7.34	8.85	–	–	–
NC(=O)c1cccc(-c2noc(CCCOc3ccc(S(=O)(=O)C4(C(=O)NO)CCN(C5CC5)CC4)cc3)n2)c1 [Example 131]	–	–	–	–	pIC50 (Human recombinant MMP-2; value outside parenthesis): 6.97; pIC50 (Human recombinant MMP-13; value outside parenthesis): 8.35
O=C(NO)C1(S(=O)(=O)c2ccc(OCCCc3nnc(-c4ccc5ccccc5c4)o3)cc2)CCOCC1 [Example 304]	6.86	9.70	–	–	–
O=C(NCCSc1ccc(S(=O)(=O)C2(C(=O)NO)CCOCC2)cc1)c1cc2ccccc2s1 [Example 597]	–	–	6.33	7.92	–
O=C(NO)C1(S(=O)(=O)c2ccc(OCCCSc3nc4c(Cl)cc(Cl)cc4o3)cc2)CCOCC1 [Example 407]	6.55	7.60	–	–	–
O=C(NCCOc1ccc(S(=O)(=O)C2(C(=O)NO)CCOCC2)cc1)c1cc2ccccc2s1 [Example 619]	–	–	7.18	8.82	–
O=C(NO)C1(S(=O)(=O)c2ccc(OCCCCO)cc2)CCOCC1 [Example 451]	8.33	8.05	–	–	–
COc1ccc(OC)c(S(=O)(=O)NCC(CCl)Oc2ccc(S(=O)(=O)C3(C(=O)NO)CCOCC3)cc2)c1 (stereo not drawn) [Example 485]	5.40	7.19	–	–	–
COc1cc2c(cc1OC)CN(CCCCOc1ccc(S(=O)(=O)C3(C(=O)NO)CCOCC3)cc1)C(C)C2 (stereo not drawn) [Example 337]	7.38	7.91	–	–	–
O=C(Cc1nn[nH]n1)NCCOc1ccc(S(=O)(=O)C2(C(=O)NO)CCOCC2)cc1 [Example 564]	–	–	6.84	7.71	–
CS(=O)(=O)c1ccccc1S(=O)(=O)N1CC(Oc2ccc(S(=O)(=O)C3(C(=O)NO)CCOCC3)cc2)C1 [Example 483]	–	7.54	–	–	–
O=C(COc1ccc(S(=O)(=O)C2(C(=O)NO)CCOCC2)cc1)Nc1cccc(-c2ccccc2)c1 [Example 642]	–	–	5.54	7.43	–
O=C(NCCCOc1ccc(S(=O)(=O)C2(C(=O)NO)CCOCC2)cc1)c1ccccc1O [Example 372]	6.68	8.22	–	–	–
CC(C)Cc1cccc(CCCOc2ccc(S(=O)(=O)C3(C(=O)NO)CCOCC3)cc2)c1 [Example 640]	–	–	6.49	7.98	–
O=C(NO)C1(S(=O)(=O)c2ccc(OCCCc3nc(-c4cc(C(F)(F)F)cc(C(F)(F)F)c4)no3)cc2)CCOCC1 [Example 216]	–	–	–	–	pIC50 (Human recombinant MMP-2; value outside parenthesis): 5.71; pIC50 (Human recombinant MMP-13; value outside parenthesis): 7.29
O=C(NO)C1(S(=O)(=O)c2ccc(OCCCc3cccc(-c4cc(F)cc(F)c4)c3)cc2)CCOCC1 [Example 159]	–	–	–	–	pIC50 (Human recombinant MMP-2; value outside parenthesis): 5.86; pIC50 (Human recombinant MMP-13; value outside parenthesis): 7.61
